Reference: patent US20160046656A1, “NOVEL PHYTOSPHINGOSINE-1-PHOSPHATE DERIVATIVE, PREPARATION METHOD THEREFOR, AND COMPOSITION FOR PREVENTING AND TREATING HAIR LOSS OR FOR GROWING HAIR COMPRISING SAME” (PHYTOS CO., LTD., priority 2013, published 2016)

How the values were obtained:
human fibroblasts = experiment: Cell proliferation by MTT assay; assay type: cell-based; conditions: for Cell Viability (%): MTT, 0 = 100; for cell proliferation, result in words: summary of Table 4
Description: (§1) To measure anti-wrinkle effects of N-C-P1P and O-C-P1P, effects of human fibroblasts on cell proliferation were measured via an MTT (3-[4,5-dimethylthiazol-2-yl]-2,5-diphenyltetrazolium bromide) assay. To observe collagen synthesis, procollagent type I, which is produced in human fibroblasts (e.g., dermal cells), were measured.
To measure cell proliferation, human fibroblasts were cultured for 24 hours in a Dulbecco's modified eagle medium (DMEM) medium supplemented with 10% FBS and 100 unit/mL of penicillin/streptomycin. The culture circumstances comprising culturing in a 5% CO2 incubator maintained at a temperature of 37° c. Then, after removing the medium therefrom, N-C-P1P and O-C-P1P were added thereto at different concentrations. The MTT assay was performed to measure effects of N-C-P1P and O-C-P1P on cell proliferation, and the results are summarized in Table 4.

C3H mice = experiment: Hair growth test using C3H mice; assay type: in vivo, mouse; conditions: for effects on hair growth compared to positive control group: 0.01 weight % solution once a day vs 3% minoxidil preparation (Mynoxyl)
Description: A 6-week C3H mouse was purchased, and the hair on a dorsal part of the mouse was partially removed. Then, hair removal cream was applied to the dorsal part to completely remove the existing hair. A mouse of which the hair was not completely removed was excluded from the test. After finishing the hair removal, 5 mice were randomly bred per cage, and a total of 5 cages were used.
The mice were left one day or so after finishing depilation, and a test compound, which was prepared by dissolving O-C-P1P of Example 4 and N-C-P1P of Example 5 in a mixed solution of ethanol and ethoxydiglycol (9:1, v/v) to a concentration of 0.01 weight %, was applied once a day to the area from which the hair was removed. A negative control group was prepared by applying a mixed solution of ethanol and ethoxydiglycol without using the test compound, and a positive control group was 3% minoxidil preparation (Mynoxyl, Hyundai Pharm). After applying samples to the area from which the hair was removed, images of the area captured at the 14th and 18th days are shown in FIG. 3. […]

procollagen type I = experiment: Collagen synthesis, procollagen type I C-peptide EIA kit; assay type: cell-based; conditions: human fibroblasts; for Collagen synthesis (%): 24 hours, serum free medium, 0 = 100; for synthesis of collagen, result in words: summary of Table 5
Description: as §1
To measure collagen synthesis, the human fibroblasts (e.g., dermal cells) were cultured in the same conditions as above for 24 hours. After removing the medium therefrom, a new serum free medium was substituted. […] The culture medium was used to measure amounts of synthesized collagen by using a procollagen type I C-peptide EIA kit, and the results measured therefrom are shown in Table 5 below.

[1] = 0.01 weight % in ethanol/ethoxydiglycol (9:1, v/v), applied once a day to depilated area, images at 14th and 18th days, FIG. 3

Row | Structure (SMILES) | Cell Viability (%) (human fibroblasts; concentration 0.002%) | Cell Viability (%) (human fibroblasts; concentration 0.004%) | Cell Viability (%) (human fibroblasts; concentration 0.008%) | Cell Viability (%) (human fibroblasts; concentration 0.016%) | cell proliferation, result in words (human fibroblasts) | effects on hair growth compared to negative control group (C3H mice; [1]) | effects on hair growth compared to positive control group (C3H mice; FIG. 3) | Collagen synthesis (%) (procollagen type I; concentration 0.1 μM) | Collagen synthesis (%) (procollagen type I; concentration 1 μM) | synthesis of collagen, result in words (procollagen type I) | effects on hair growth compared to negative control group (C3H mice; 0.005, 0.01 and 0.02 weight % solutions, images at 13th and 17th days, FIG. 5) | difference in effects on hair growth among concentrations (C3H mice; 0.005 weight %, 0.01 weight % and 0.02 weight %, FIG. 5) | effects on hair growth compared to negative control group (C3H mice; liposomes containing O-C-P1P of Examples 6 and 7, once a day for 3 weeks, FIG. 4) | concentration giving the same effects on hair growth, times as low as the concentration of minoxidil (C3H mice; vs 3% minoxidil preparation)
1 | CCCCCCCCCCCCCC[C@@H](O)[C@@H](O)[C@@H]1COP(=O)(O)N1 [N-C-P1P, N-cyclic phytospingosine-1-phosphate] | 120 | 110 | 110 | 125 | promoting cell proliferation | significantly better | quite less | 110 | 125 | promoting synthesis of collagen |  |  |  | 
2 | CCCCCCCCCCCCCC[C@@H](O)[C@H]1OP(=O)(O)OC[C@@H]1N [O-C-P1P, O-cyclic phytospingosine-1-phosphate] | 128 | 135 | 143 | 160 | promoting cell proliferation | rapid growth of hair | effects on faster hair growth were shown better | 120 | 140 | promoting synthesis of collagen | significant effects on hair growth | no significant different | significant effects on hair growth | about 300 times
